Assay results as given in ChEMBL document CHEMBL4665653, “VU6005806/AZN-00016130, an advanced M positive allosteric modulator (PAM) profiled as a potential preclinical development candidate” (Bioorg Med Chem Lett, 2019).
Converted amounts (≈) assume the structure as drawn.

Tests used:
[1] = Brain to plasma permeability coefficient, Kp in Sprague-Dawley rat at 0.1 to 0.2 mg/kg, iv measured after 0.25 hrs; type: ADME, organism-based; details: dose 0.1-0.2 mg/kg
[2] = target: Adenosine receptor A1 (Homo sapiens) (UniProt P30542); test: Displacement of [3H]DPCPX from recombinant full length human adenosine A1 receptor expressed in CHO-K1 cells assessed as residual binding level for radioligand at 10 uM incubated for 90 mins radiometric scintillation analysis relative to control; type: cell-based
Chain of Adenosine receptor A1 (Homo sapiens) (P30542 whole entry): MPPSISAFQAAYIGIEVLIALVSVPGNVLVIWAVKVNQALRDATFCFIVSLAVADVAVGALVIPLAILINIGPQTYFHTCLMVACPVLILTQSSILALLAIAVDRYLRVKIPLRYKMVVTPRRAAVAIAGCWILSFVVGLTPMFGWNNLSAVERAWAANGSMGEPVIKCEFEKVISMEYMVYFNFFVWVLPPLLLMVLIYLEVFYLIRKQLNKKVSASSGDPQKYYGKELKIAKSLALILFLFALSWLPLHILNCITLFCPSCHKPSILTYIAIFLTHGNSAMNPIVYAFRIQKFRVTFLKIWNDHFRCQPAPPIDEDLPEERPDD

[3] = target: Cytochrome P450 3A4 (Homo sapiens, UniProt P08684); test: Inhibition of CYP3A4 (unknown origin); type: ADME
[4] = Fraction unbound in rat brain; type: ADME, tissue-based
[5] = Brain to plasma permeability coefficient, Kp in Sprague-Dawley rat at 0.1 to 0.2 mg/kg, iv measured after 1.5 hrs; type: ADME, organism-based; details: dose 0.1-0.2 mg/kg
[6] = Half life in cynomolgus monkey; type: ADME, Macaca fascicularis; details: in vivo
[7] = Solubility of the compound in simulated gastric fluid; type: physicochemical
[8] = target: Kappa-type opioid receptor (Homo sapiens) (UniProt P41145); test: Displacement of [3H]-Diprenorphine from recombinant full length human kappa opioid receptor expressed in HEK293 cells assessed as residual binding level for radioligand at 10 uM incubated for 60 mins by scintillation counting analysis relative to control; type: cell-based
Chain of Kappa-type opioid receptor (Homo sapiens) (P41145 whole entry): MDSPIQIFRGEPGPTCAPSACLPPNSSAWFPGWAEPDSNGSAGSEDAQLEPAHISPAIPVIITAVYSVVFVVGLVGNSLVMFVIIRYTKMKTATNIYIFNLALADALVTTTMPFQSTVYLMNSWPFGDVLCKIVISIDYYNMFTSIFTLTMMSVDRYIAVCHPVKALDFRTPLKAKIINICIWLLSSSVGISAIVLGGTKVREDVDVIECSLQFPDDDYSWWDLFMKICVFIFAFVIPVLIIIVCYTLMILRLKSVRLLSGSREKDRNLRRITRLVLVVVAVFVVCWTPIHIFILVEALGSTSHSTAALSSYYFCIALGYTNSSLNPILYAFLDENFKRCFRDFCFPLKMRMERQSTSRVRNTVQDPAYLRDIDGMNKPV

[9] = target: L-type calcium channel Cav1.2, dihydropyridine binding site (Rattus norvegicus, UniProt P22002); test: Displacement of [3H]-Nitrendipine from L-type calcium channel Cav1.2 dihydropyridine binding site in Wistar rat brain assessed as residual binding level for radioligand at 10 uM incubated for 90 mins by radiometric scintillation analysis relative to control; type: tissue-based; details: probe [3H]-Nitrendipine, read-out: Activity
Chain of L-type calcium channel Cav1.2, dihydropyridine binding site (P22002 whole entry): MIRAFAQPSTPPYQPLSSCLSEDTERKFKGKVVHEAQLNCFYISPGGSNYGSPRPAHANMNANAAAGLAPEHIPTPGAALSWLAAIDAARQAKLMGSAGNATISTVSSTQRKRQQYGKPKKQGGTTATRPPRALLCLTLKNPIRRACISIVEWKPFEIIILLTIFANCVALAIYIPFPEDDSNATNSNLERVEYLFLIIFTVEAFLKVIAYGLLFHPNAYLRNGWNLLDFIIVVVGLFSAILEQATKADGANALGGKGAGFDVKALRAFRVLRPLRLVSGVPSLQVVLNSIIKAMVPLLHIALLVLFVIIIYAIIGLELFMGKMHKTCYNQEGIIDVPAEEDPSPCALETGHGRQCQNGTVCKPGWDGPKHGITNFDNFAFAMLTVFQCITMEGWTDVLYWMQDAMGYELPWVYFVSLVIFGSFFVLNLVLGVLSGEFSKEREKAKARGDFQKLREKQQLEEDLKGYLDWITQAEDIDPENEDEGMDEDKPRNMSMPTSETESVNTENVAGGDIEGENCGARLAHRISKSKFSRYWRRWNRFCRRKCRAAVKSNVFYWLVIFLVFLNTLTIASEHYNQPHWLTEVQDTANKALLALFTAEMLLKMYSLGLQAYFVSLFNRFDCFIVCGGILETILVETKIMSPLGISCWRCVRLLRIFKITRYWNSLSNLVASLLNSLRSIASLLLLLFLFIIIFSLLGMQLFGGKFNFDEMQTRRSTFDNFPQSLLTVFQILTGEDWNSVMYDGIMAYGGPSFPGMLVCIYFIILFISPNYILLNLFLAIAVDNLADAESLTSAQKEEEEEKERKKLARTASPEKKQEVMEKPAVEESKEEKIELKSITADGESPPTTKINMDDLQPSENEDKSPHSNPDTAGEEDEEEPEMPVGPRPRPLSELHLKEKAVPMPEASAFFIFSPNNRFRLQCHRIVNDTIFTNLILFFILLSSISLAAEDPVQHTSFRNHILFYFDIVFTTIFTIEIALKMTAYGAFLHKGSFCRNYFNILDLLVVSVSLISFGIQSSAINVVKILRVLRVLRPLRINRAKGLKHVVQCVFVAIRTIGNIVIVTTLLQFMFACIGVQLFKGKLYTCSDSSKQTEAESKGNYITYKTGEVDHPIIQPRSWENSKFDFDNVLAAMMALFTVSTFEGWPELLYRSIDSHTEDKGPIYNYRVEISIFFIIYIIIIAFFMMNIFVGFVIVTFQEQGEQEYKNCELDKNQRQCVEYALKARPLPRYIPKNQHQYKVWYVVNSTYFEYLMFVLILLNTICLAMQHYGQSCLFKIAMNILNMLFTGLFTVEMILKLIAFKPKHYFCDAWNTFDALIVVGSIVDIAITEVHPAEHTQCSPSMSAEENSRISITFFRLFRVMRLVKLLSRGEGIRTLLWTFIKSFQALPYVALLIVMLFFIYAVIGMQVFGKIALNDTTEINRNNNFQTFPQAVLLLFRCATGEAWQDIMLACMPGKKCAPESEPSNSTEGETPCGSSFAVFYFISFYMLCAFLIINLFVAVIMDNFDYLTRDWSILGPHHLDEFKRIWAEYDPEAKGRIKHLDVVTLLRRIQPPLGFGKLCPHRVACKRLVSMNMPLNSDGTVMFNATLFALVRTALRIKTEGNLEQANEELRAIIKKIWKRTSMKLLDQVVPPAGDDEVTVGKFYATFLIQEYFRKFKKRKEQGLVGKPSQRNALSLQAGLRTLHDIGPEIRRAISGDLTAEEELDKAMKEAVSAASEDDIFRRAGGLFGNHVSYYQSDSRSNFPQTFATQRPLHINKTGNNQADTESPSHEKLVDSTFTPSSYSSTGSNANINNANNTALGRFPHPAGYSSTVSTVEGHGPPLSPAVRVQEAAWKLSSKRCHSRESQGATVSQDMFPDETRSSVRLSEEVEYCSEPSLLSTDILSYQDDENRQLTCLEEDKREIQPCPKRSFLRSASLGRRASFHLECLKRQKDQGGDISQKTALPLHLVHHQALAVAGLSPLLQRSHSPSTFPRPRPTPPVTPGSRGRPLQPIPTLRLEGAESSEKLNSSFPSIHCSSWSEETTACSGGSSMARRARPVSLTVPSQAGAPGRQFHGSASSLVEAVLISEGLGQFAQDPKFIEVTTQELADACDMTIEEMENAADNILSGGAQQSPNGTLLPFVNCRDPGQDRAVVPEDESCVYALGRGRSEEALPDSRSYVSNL

[10] = species on record: Rattus norvegicus; test: Displacement of [3H]-TCP from NMDA glutamate receptor phencyclidine binding site in Wistar rat brain assessed as residual binding level for radioligand at 10 uM incubated for 45 mins by scintillation counting analysis relative to control; type: tissue-based
[11] = target: T1, Muscarinic acetylcholine receptor M2 (Homo sapiens, UniProt P08172); test: Positive allosteric modulation of human M2 receptor/Gqi5 in presence of EC20 acetylcholine by calcium mobilization assay
T1 sequence (P08172 whole entry): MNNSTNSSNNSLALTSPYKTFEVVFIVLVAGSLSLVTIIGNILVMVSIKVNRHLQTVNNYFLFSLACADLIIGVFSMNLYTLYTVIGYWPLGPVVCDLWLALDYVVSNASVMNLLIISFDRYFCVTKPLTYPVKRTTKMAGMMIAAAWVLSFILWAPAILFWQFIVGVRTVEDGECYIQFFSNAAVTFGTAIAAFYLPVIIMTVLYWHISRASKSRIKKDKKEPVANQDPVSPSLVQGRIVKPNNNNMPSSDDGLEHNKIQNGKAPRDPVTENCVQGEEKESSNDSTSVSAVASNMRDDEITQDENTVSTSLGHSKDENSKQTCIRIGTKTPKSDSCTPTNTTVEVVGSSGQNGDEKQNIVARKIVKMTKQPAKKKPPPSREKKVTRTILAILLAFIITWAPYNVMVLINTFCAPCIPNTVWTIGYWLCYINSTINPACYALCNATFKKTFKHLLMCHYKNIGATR

[12] = species on record: Rattus norvegicus; test: Displacement of [3H]-Flunitrazepam from Wistar rat brain GABA(A)/BzR site assessed as residual binding level for radioligand at 10 uM measured after 60 mins by scintillation counting method relative to control; type: tissue-based
[13] = target: Sodium-dependent dopamine transporter (Homo sapiens) (UniProt Q01959); test: Displacement of [125I]RTI-55 from full length recombinant human dopamine transporter expressed in CHO-S cells assessed as residual binding level for radioligand at 10 uM after 180 mins by radiometric scintillation analysis relative to control; type: cell-based
[14] = system: Rattus norvegicus; test: Reversal of amphetamine-induced hyperlocomotion in rat at 3 mg/kg, po relative to control; type: functional
[15] = Solubility of the compound in FaSSIF; type: physicochemical
[16] = target: Alpha-1D adrenergic receptor (Homo sapiens) (UniProt P25100); test: Displacement of [3H]-Prazosin from recombinant full length human adrenergic alpha 1D receptor assessed as residual binding level for radioligand at 10 uM incubated for 60 mins by radiometric scintillation analysis relative to control
Chain of Alpha-1D adrenergic receptor (Homo sapiens) (P25100 whole entry): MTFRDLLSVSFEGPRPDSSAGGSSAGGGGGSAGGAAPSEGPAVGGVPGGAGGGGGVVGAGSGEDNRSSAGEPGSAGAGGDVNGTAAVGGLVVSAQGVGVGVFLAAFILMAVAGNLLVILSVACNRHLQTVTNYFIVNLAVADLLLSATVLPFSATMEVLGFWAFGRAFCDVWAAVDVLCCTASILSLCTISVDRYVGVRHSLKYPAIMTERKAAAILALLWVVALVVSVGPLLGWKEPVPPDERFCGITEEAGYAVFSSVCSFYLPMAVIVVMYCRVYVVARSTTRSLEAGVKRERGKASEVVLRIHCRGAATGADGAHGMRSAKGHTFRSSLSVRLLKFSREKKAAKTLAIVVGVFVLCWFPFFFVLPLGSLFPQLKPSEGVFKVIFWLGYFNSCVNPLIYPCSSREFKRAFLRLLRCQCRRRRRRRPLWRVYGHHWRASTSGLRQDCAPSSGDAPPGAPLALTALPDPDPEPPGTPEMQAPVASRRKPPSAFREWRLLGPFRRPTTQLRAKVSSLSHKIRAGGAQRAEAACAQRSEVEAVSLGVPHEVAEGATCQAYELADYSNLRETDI

[17] = target: D(3) dopamine receptor (Homo sapiens) (UniProt P35462); test: Displacement of [3H]spiperone from full length human dopamine D3 receptor expressed in CHO cells assessed as residual binding level for radioligand at 10 uM incubated for 60 mins by radiometric scintillation analysis relative to control; type: cell-based
[18] = Positive allosteric modulation of cynomolgus monkey M4 receptor; design: species or system Macaca fascicularis
[19] = target: Alpha-2A adrenergic receptor (Homo sapiens) (UniProt P08913); test: Displacement of [3H][…] from recombinant full length human adrenergic alpha 2A receptor expressed in CHO-K1 cells assessed as residual binding level for radioligand at 10 uM incubated for 60 mins by radiometric scintillation analysis relative to control; type: cell-based
Chain of Alpha-2A adrenergic receptor (Homo sapiens) (P08913 whole entry): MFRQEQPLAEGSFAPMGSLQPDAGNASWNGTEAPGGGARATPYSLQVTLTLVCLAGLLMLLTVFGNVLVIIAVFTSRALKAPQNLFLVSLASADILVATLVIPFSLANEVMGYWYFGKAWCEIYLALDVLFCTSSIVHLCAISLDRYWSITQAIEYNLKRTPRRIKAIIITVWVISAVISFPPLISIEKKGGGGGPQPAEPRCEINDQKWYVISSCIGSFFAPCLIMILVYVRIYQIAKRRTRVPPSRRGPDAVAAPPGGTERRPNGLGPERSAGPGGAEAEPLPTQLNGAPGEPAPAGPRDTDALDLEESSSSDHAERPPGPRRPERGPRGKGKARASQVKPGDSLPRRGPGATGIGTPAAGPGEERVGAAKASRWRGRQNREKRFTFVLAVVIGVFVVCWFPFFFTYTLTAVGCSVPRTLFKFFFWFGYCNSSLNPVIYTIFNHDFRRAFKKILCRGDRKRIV

[20] = target: Melatonin receptor type 1A (Homo sapiens) (UniProt P48039); test: Displacement of 2-[1251]-iodomelatonin from human MT1 receptor expressed in CHO-K1 cells assessed as residual binding level for radioligand at 10 uM incubated for180 mins by scintillation counting analysis relative to control; type: cell-based; details: time 180.0 min
[21] = Plasma clearance in rat; type: ADME; details: read-out: CL(app)
[22] = target: Alpha-1A adrenergic receptor (Homo sapiens) (UniProt P35348); test: Displacement of [3H]-Prazosin from human adrenergic alpha 1A receptor expressed in Chem-1 cells assessed as residual binding level for radioligand at 10 uM incubated for 60 mins by radiometric scintillation analysis relative to control; type: cell-based
Chain of Alpha-1A adrenergic receptor (Homo sapiens) (P35348 whole entry): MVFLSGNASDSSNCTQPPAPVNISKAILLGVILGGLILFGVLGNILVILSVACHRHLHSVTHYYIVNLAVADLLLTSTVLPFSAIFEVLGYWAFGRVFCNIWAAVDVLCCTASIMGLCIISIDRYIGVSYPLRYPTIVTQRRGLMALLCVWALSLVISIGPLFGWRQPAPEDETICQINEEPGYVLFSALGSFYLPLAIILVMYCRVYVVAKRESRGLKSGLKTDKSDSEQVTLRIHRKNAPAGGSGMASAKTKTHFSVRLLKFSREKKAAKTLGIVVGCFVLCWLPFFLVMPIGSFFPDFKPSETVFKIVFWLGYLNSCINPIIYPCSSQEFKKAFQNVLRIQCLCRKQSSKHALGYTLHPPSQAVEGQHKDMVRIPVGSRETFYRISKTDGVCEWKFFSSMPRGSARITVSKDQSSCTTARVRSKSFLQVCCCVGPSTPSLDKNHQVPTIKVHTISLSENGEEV

[23] = target: Glucocorticoid receptor (Homo sapiens) (UniProt P04150); test: Displacement of [3H]Dexamethasone from recombinant full length human glucocorticoid receptor expressed in insect cells assessed as residual binding level for radioligand at 10 uM incubated for 1440 mins by scintillation counting analysis relative to control
[24] = Hepatic clearance in human; type: ADME
[25] = target: B2 bradykinin receptor (Homo sapiens) (UniProt P30411); test: Displacement of [3H]bradykinin from recombinant full length human B2 receptor expressed in Chem-1 cells assessed as residual binding level for radioligand at 10 uM after 60 mins by radiometric scintillation analysis relative to control; type: cell-based
Chain of B2 bradykinin receptor (Homo sapiens) (P30411 whole entry): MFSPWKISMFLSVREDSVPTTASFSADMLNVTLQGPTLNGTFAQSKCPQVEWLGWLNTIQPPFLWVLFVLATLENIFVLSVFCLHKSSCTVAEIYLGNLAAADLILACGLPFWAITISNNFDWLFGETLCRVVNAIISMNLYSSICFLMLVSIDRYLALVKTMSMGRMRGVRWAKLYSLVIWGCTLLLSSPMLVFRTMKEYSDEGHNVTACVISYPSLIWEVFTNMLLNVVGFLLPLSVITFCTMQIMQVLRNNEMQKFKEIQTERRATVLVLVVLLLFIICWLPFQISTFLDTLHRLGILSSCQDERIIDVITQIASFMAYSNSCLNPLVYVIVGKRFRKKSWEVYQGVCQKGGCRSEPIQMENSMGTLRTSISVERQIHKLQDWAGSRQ

[26] = target: Endothelin-1 receptor (Homo sapiens) (UniProt P25101); test: Displacement of [125I]endothelin-1 from recombinant full length human recombinant ETA receptor expressed in CHO-S cells assessed as residual binding level for radioligand at 10 uM measured after 120 mins by radiometric scintillation analysis relative to control; type: cell-based
[27] = system: HIT-T15; test: Displacement of [3H]glyburide from KATP receptor in HIT-T15 Syrian hamster pancreatic B cell membranes assessed as residual binding level for radioligand at 10 uM after 120 mins by radiometric scintillation analysis relative to control; type: tissue-based; details: Mesocricetus auratus
[28] = target: Sigma non-opioid intracellular receptor 1 (Homo sapiens) (UniProt Q99720); test: Displacement of [3H]-(+)-pentazocine from human sigma-1 receptor in human T lymphocyte Jurkat cell membrane assessed as residual binding level for radioligand at 10 uM incubated for 120 mins by liquid scintillation counting method relative to control; type: tissue-based
Chain of Sigma non-opioid intracellular receptor 1 (Homo sapiens) (Q99720 whole entry): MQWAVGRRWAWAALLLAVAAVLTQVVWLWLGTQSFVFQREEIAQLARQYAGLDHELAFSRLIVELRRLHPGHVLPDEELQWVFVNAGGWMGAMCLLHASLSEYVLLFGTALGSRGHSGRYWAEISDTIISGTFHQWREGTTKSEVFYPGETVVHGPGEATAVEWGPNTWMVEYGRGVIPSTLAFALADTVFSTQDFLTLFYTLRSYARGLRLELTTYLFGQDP

[29] = target: Muscarinic acetylcholine receptor M1 (Rattus norvegicus, UniProt P08482); test: Positive allosteric modulation of rat M1 receptor
[30] = Hepatic clearance in rat; type: ADME; details: in vivo

COc1nnc2sc(C(=O)NC3CN(c4ncc(C(F)(F)F)cn4)C3)c(N)c2c1C
Kp at 0.25 h [1]: 0.34 | Activity [2]: > 50% | IC50 [3]: > 30 µM | fraction unbound [4]: 0.039 | Kp at 1.5 h [5]: 0.16 | half-life [6]: 1.3 h | solubility [7]: 15 µM (≈ 6.59 µg/mL) | Activity [8]: > 50% | activity at 1.5 h, 10 µM [9]: > 50% | Activity [10]: > 50% | EC50 [11]: > 30 µM | Activity [12]: > 50% | Activity [13]: > 50% | Activity [14]: 54% | solubility [15]: 18 µM (≈ 7.91 µg/mL) | Activity [16]: > 50% | Activity [17]: > 50% | EC50 [18]: 0.068 µM | Activity [19]: > 50% | Activity [20]: > 50% | clearance [21]: 7.7 mL/min/kg | Activity [22]: > 50% | Activity [23]: > 50% | CLH [24]: 2.52 mL/min/kg | Activity [25]: > 50% | Activity [26]: > 50% | Activity [27]: > 50% | Activity [28]: > 50% | EC50 [29]: > 30 µM | CLH [30]: 30.5 mL/min/kg
